How the values were obtained:
[1] = test system: ISPD-deficient HAP1 cells; settings: ISPD-deficient (KO) HAP1 cells; CDP-ribitol added to culture medium at final concentration 1 mM; culture 24 hours; western blot
Method: (§1) In this Example, for HAP1 cells and HEK cells, cells deficient in ISPD were generated using a CRISPR/CAS9 genome editing method. The HAP1 cells are a haploid cell line derived from cultured human leukemia cells (KBM7), and are cells capable of being subjected to genome editing with high efficiency.
(§2) The deficiency mutation of the ISPD-deficient cells was confirmed by DNA sequencing. To each culture medium, CDP-ribitol was added at a final concentration of 1 mM, followed by culture for 24 hours. After the culture, cell endogenous dystroglycan was prepared from a cell extract, and the state of glycosylation was confirmed by a western blot method.

ISPD-deficient HEK cells = settings: ISPD-deficient (KO) HEK cells; CDP-ribitol 1 mM administered simultaneously with cell transfection reagent (lipofectamine); culture 24 hours; western blot
Method: as §1, §2

Substance: cytidine diphosphate ribitol [CDP-ribitol]
- state of glycosylation of cell endogenous dystroglycan (α-DG) [1]: caused glycosylation of α-DG similar to that in the normal cells
- state of glycosylation of cell endogenous dystroglycan (α-DG) (ISPD-deficient HEK cells): the restoration of the glycan was confirmed
